Measurements taken from patent US7691889B2, “Antimycobacterial compounds” (Lupin Limited, priority 2002, dated 2010).
Values after ≈ are worked out from the molar mass of the structure shown.

Tests used:
M. tuberculosis 27294 = assay: In vitro agar dilution assay (MIC), reference strain; type: cell-based, Mycobacterium tuberculosis; conditions: for MIC against M. tuberculosis 27294: Middlebrook 7H10
[1] = system: M. tuberculosis clinical isolates, sensitive; assay: microbe, parasite or virus in culture; type: cell-based, Mycobacterium tuberculosis; conditions: Table I; agar dilution

| Structure (SMILES) | MIC against M. tuberculosis 27294 (M. tuberculosis 27294) | MIC against Clinical isolates Sensitive [1] | MIC (M. tuberculosis 27294; Mycobacterium tuberculosis, 27294, Middlebrook 7H10, read-out: MIC against M. tuberculosis 27294) [µg/mL] |
| --- | --- | --- | --- |
| O=C(CCC(=O)c1ccccc1)NC[C@H]1CN(c2ccc(N3CCOCC3)c(F)c2)C(=O)O1 [Compound 1, (S)-N-[[3-(3-fluoro-4-morpholinylphenyl)-2-oxo-5-oxazolidinyl]methyl]-4-oxo-4-phenylbutanamide] | 16 µg/mL (≈ 35.1 µM) | 4 to 16 µg/mL |  |
| Cc1ccc(C(=O)CCC(=O)NC[C@H]2CN(c3ccc(N4CCOCC4)c(F)c3)C(=O)O2)cc1 [Compound 2, (S)-N-[[3-(3-fluoro-4-morpholinylphenyl)-2-oxo-5-oxazolidinyl]methyl]-4-(4-methylphenyl)-4-oxobutanamide] | 8 µg/mL (≈ 17 µM) | 8 µg/mL (≈ 17 µM) |  |
| O=C(CCC(=O)c1ccccc1)NC[C@H]1CN(c2ccc(N3CCSCC3)c(F)c2)C(=O)O1 [Compound 8, (S)-N-[[3-(3-fluoro-4-thiomorpholinylphenyl)-2-oxo-5-oxazolidinyl]methyl]-4-oxo-4-phenylbutanamide] | 2 µg/mL (≈ 4.24 µM) | .5 to 2 µg/mL |  |
| COc1ccc(C(=O)CCC(=O)NC[C@H]2CN(c3ccc(N4CCOCC4)c(F)c3)C(=O)O2)cc1 [Compound 13, (S)-N-[[3-(3-fluoro-4-morpholinylphenyl)-2-oxo-5-oxazolidinyl]methyl]-4-(4-methoxyphenyl)-4-oxobutanamide] | 2 µg/mL (≈ 4.12 µM) | 2 µg/mL (≈ 4.12 µM) |  |
| O=C(CCC(=O)c1ccc(Cl)cc1)NC[C@H]1CN(c2ccc(N3CCOCC3)c(F)c2)C(=O)O1 [Compound 14, (S)-N-[[3-(3-fluoro-4-morpholinylphenyl)-2-oxo-5-oxazolidinyl]methyl]-4-(4-chlorophenyl)-4-oxobutanamide] | 0.25 µg/mL (≈ 0.51 µM) | 0.25 to 0.5 µg/mL |  |
| Cc1ccc(C(=S)CCC(=O)NC[C@H]2CN(c3ccc(N4CCOCC4)c(F)c3)C(=O)O2)cc1 [Compound 15, (S)-N-[[3-(3-fluoro-4-morpholinylphenyl)-2-oxo-5-oxazolidinyl]methyl]-4-(4-methylphenyl)-4-thiooxobutanamide] | >16 µg/mL | >16 µg/mL |  |
| O=C(CCC(=O)c1ccc2ccccc2c1)NC[C@H]1CN(c2ccc(N3CCOCC3)c(F)c2)C(=O)O1 [Compound 16, (S)-N-[[3-(3-fluoro-4-morpholinylphenyl)-2-oxo-5-oxazolidinyl]methyl]-4-(4-2-naphthyl)-4-oxobutanamide] | 0.5 µg/mL (≈ 0.989 µM) | 0.5 µg/mL (≈ 0.989 µM) |  |
| CC(C)Cc1ccc(C(=O)CCC(=O)NC[C@H]2CN(c3ccc(N4CCOCC4)c(F)c3)C(=O)O2)cc1 [Compound 17] | 0.5 µg/mL (≈ 0.977 µM) | 1.0 µg/mL (≈ 1.95 µM) |  |
| O=C(CCC(=O)c1ccc(F)cc1F)NC[C@H]1CN(c2ccc(N3CCOCC3)c(F)c2)C(=O)O1 [Compound 18, (S)-N-[[3-(3-fluoro-4-morpholinylphenyl)-2-oxo-5-oxazolidinyl]methyl]-4-(2,4-difluorophenyl)-4-oxobutanamide] | 4− μg/ml | 1 to 4 µg/mL |  |
| O=C(CCC(=O)c1cccs1)NC[C@H]1CN(c2ccc(N3CCOCC3)c(F)c2)C(=O)O1 [Compound 19, (S)-N-[[3-(3-fluoro-4-morpholinylphenyl)-2-oxo-5-oxazolidinyl]methyl]-4-oxo-4-(2-thienyl)butanamide] | 2 µg/mL (≈ 4.33 µM) | 1 to 2 µg/mL |  |
| CSc1ccc(C(=O)CCC(=O)NC[C@H]2CN(c3ccc(N4CCOCC4)c(F)c3)C(=O)O2)cc1 [Compound 21, (S)-N-[[3-(3-fluoro-4-morpholinylphenyl)-2-oxo-5-oxazolidinyl]methyl]-4-oxo-4-(4-thiomethyl)phenylbutanamide] | 0.5 µg/mL (≈ 0.997 µM) | 0.5 to 2 µg/mL |  |
| Cc1ccc(C(=O)CCC(=O)NC[C@H]2CN(c3ccc(N4CCOCC4)c(F)c3)C(=O)O2)c(C)c1 [Compound 25, (S)-N-[[3-(3-fluoro-4-morpholinylphenyl)-2-oxo-5-oxazolidinyl]methyl]-4-(2,4-dimethylphenyl)-4-oxobutanamide] | 4 µg/mL (≈ 8.27 µM) | 4 to 16 µg/mL |  |
| Cc1ccc(C(=O)CCC(=O)NC[C@H]2CN(c3ccc(-n4nnc5ccccc54)c(F)c3)C(=O)O2)c(C)c1 [Compound 27, (S)-N-[[3-(3-fluoro-4-benzotriazolylphenyl)-2-oxo-5-oxazolidinyl]methyl]-4-(2,4-dimethylphenyl)-4-oxobutanamide] | >16 µg/mL | >16 µg/mL |  |
| O=C(CCC(=O)c1cccs1)NC[C@H]1CN(c2ccc(N3CCCC3)c(F)c2)C(=O)O1 [Compound 28, (S)-N-[[3-(3-fluoro-4-pyrrolidinylphenyl)-2-oxo-5-oxazolidinyl]methyl]-4-oxo-4-(2-thienyl)butanamide] | 0.5 µg/mL (≈ 1.12 µM) | 1 to 2 µg/mL |  |
| O=C(CCC(=O)c1cccs1)NC[C@H]1CN(c2ccc([N+]3([O-])CCOCC3)c(F)c2)C(=O)O1 [Compound 31, (S)-N-[[3-(3-fluoro-4-morpholinylphenyl)-2-oxo-5-oxazolidinyl]methyl]-4-oxo-4-(2-thienyl)butanamide-N-oxide] | 1 µg/mL (≈ 2.09 µM) | 1 to 2 µg/mL |  |
| O=C(CCC(=O)c1ccc(Cl)cc1)NC[C@H]1CN(c2ccc([N+]3([O-])CCOCC3)c(F)c2)C(=O)O1 [Compound 32, (S)-N-[[3-(3-fluoro-4-morpholinylphenyl)-2-oxo-5-oxazolidinyl]methyl]-4-(4-chlorophenyl)-4-oxobutanamide-N-oxide] | 0.25 µg/mL (≈ 0.494 µM) | 0.25 to 0.5 µg/mL |  |
| CC(C)Cc1ccc(C(=O)CCC(=O)NC[C@H]2CN(c3ccc([N+]4([O-])CCOCC4)c(F)c3)C(=O)O2)cc1 [Compound 33] | 0.5 µg/mL (≈ 0.948 µM) | 1 µg/mL (≈ 1.9 µM) |  |
| O=C(C=CC(=O)c1ccccc1)NC[C@H]1CN(c2ccc(N3CCOCC3)c(F)c2)C(=O)O1 [Compound 34, (S)-N-[[3-(3-fluoro-4-morpholinylphenyl)-2-oxo-5-oxazolidinyl]methyl]-4-oxo-4-phenylbut-2-enamide] | >16 µg/mL | >16 µg/mL |  |
| O=C(CCC(=O)c1ccc(F)cc1F)NC[C@H]1CN(c2ccc(-c3nc[nH]n3)c(F)c2)C(=O)O1 [Compound 51, (S)-N-[[3-(3-fluoro-4-(1,2,4-triazolyl)phenyl)-2-oxo-5-oxazolidinyl]methyl]-4-(2,4-difluorophenyl)-4-oxobutanamide] |  |  | 8 (≈ 16.9 µM) |
| O=C(CCC(=O)c1ccc2ccccc2c1)NC[C@H]1CN(c2ccc(N3CCCC3)c(F)c2)C(=O)O1 [Compound 57, (S)-N-[[3-(3-fluoro-4-pyrrolidinylphenyl)-2-oxo-5-oxazolidinyl]methyl]-4-(2-naphthyl)-4-oxobutanamide] | 16 µg/mL (≈ 32.7 µM) |  |  |
| CCCc1ccc(C(=O)CCC(=O)NC[C@H]2CN(c3ccc(N4CCCC4)c(F)c3)C(=O)O2)c(C)c1 [Compound 58, (S)-N-[[3-(3-fluoro-4-pyrrolidinylphenyl)-2-oxo-5-oxazolidinyl]methyl]-4-(2′-methyl-4-propylphenyl)-4-oxobutanamide] | 8 µg/mL (≈ 16.1 µM) |  |  |
